# Test results taken from patent US12371507B2, “CDCP1 antibodies and antibody drug conjugates” (Beth Israel Deaconess Medical Center, priority 2018, dated 2025).
# Non-standard residues stand in square brackets, D forms with d. Residues, ends and D or L forms follow the SMILES beside them. *: point of attachment. Dolaproine = CO[C@@H]([C@@H]1CCCN1)[C@@H](C)C(=O)O; Dil = CC[C@H](C)[C@H](NC)[C@@H](CC(=O)O)OC; Doe = c1ccc(C[C@H](N*)c2nccs2)cc1; Aib = CC(C)(N)C(=O)O
# Key:
# [1] = system: primary human aortic smooth muscle cells (HuAoSMC); test: In vitro cytotoxicity (ATPlite viability, four days); format: cell-based
# Method: (§1) Cells were incubated in a 6-fold 9-point dilution series of respective ADCs ranging in concentration from 600 nM to 0.357225 pM. […] The mean of luminescence counts of triplicate samples were normalized to a medium only control (growth medium no ADC) to calculate percent viability.
# [2] = system: H1299 cells; test: as above; format: cell-based; conditions: Homo sapiens, NCI-H1299; H1299, NSCLC
# Method: as §1
# [3] = system: PE/CA-PJ-49 cells; test: as above; format: cell-based; conditions: Homo sapiens; PE/CA-PJ-49, oral squamous cell carcinoma
# Method: as §1
# [4] = system: PC3 cells; test: as above; format: cell-based; conditions: Homo sapiens, PC-3; PC3, prostate cancer
# Method: as §1
# [5] = system: H2009 cells; test: as above; format: cell-based; conditions: Homo sapiens, NCI-H2009; H2009, lung adenocarcinoma
# Method: as §1
# [6] = system: SCC-25 cells; test: as above; format: cell-based; conditions: Homo sapiens; SCC-25, head and neck cancer
# Method: as §1
# [7] = system: head and neck cancer model PDX-HNX-24715; test: PDX tumor growth versus standard of care; format: in vivo, mouse; conditions: 5 mg/kg
# Method: (§2) The effects of ADCs were evaluated on the in vivo growth of human tumor patient-derived xenografts (PDX) implanted into immunodeficient NOD/SCID mice. To establish initial PDX cell lines, primary human tumor resection samples were procured from clinical sites following Institutional Review Board for the Protection of Human Subjects approval and in accordance with HIPAA regulations. Tumor fragments were implanted subcutaneously in mice and animals were monitored for health status daily and for tumor growth by visual inspection twice per week. Once the tumors were palpable, measurements of tumor volume began in order to track tumor growth and estimate cell doubling time. Tumor volume was estimated using the equation V=(A*B^2)/2 where A is the long axis and B is the short axis. When tumors reached a volume of 500 mm^3 to 1,500 mm^3, they were harvested for study and for re-transplant in naïve mice as a PDX line. Tumors were mechanically dissociated into fragments for cryopreservation or additional passage in mice.
# (§3) For efficacy studies, PDX tumors were aseptically harvested from passaging mice and minced into fragments approximately 2 mm in diameter. The PDX tumor fragments were transplanted into the right flank of naïve 7-10-week old NOD-SCID mice.
# (§4) Tumor growth was initially followed by palpability with measurements beginning once tumor volumes reached about 30 mm^3. Studies were randomized based on tumor size once a cohort of tumor-bearing mice reached an average of 200 mm^3. Animals were then dosed by intravenous injection of test ADCs once every four days (day 1, 5, 9, and 13) for four total doses (q4d×4). For each tumor measurement taken at regular intervals the tumor volume was calculated and an average tumor size +/− the standard error of the mean (SEM) was derived per cohort of surviving animals to determine tumor growth rates. In some studies, a “waterfall plot” was derived by calculating the maximum observed percent difference in tumor volume from the starting volume post the final dose of ADC. […]
# [8] = system: NSCLC model PDX-NSX-15137; test: PDX tumor growth versus standard of care; format: in vivo, mouse; conditions: 22.5 mg/kg
# Method: as §2, §3, §4
compound,measurement,setting,value
"CC[C@H](C)[C@@H]([C@@H](CC(=O)N1CCC[C@H]1[C@H](OC)[C@@H](C)C(=O)N[C@@H](Cc1ccccc1)c1nccs1)OC)N(C)C(=O)[C@@H](NC(=O)C(C)(C)N)C(C)C [Aur0101, 2-methylalanyl-N-[(3R,4S,5S)-3-methoxy-1-{(2S)-2-[(1R,2R)-1-methoxy-2-methyl-3-oxo-3-{[(1S)-2-phenyl-1-(1,3-thiazol-2-yl)ethyl]amino}propyl]pyrrolidin-1-yl}-5-methyl-1-oxoheptan-4-yl]-N-methyl-L-valinamide] (H-[Aib]V[Dil][Dolaproine]-Doe)",IC50,[1],0.176 nM
same,IC50,[2],0.202 nM
same,IC50,[3],0.0373 nM
same,IC50,[4],0.0636 nM
same,IC50,[5],0.116 nM
same,IC50,[6],0.047 nM
"N.N.[Cl][Pt][Cl] [cisplatin, reference compound]",tumor size at day 25,[7],more than doubled in size
"CC(=O)O[C@H]1C(=O)[C@@]2(C)[C@H]([C@H](OC(=O)c3ccccc3)[C@]3(O)C[C@H](OC(=O)[C@H](O)[C@@H](NC(=O)c4ccccc4)c4ccccc4)C(C)=C1C3(C)C)[C@]1(OC(C)=O)CO[C@@H]1C[C@@H]2O [Paclitaxel, reference compound]",average tumor size at day 35,[8],doubled
same,day by which all mice had been sacrificed due to excessive tumor growth,[8],≤ 42 days
